Source: patent US20260151391A1, “TREATMENT OF MITOCHONDRIAL DISEASES WITH sGC STIMULATORS” (Tisento Therapeutics Inc., priority 2022, published 2026)

Tested on: normotensive Sprague Dawley rats
Assay: Blood pressure effects in normotensive rats following acute oral dose
Type: in vivo, rat
Conditions: for Peak ΔVMAP (mm Hg): sodium salt in Milli-Q water, vehicle-adjusted MAP, 10-minute bins; for Time at Peak: time of peak ΔVMAP
Experimental: Male, normotensive Sprague Dawley rats were purchased from Charles River Laboratories. These rats have indwelling femoral artery catheters installed. Animals were harnessed to a tether system and attached to pressure transducers to monitor cardiovascular (CV) parameters, specifically mean arterial pressure (MAP) and heart rate (HR). Animals were acclimated to the system overnight and baseline CV parameters collected. The conscious, freely moving rats were then administered a single oral dose of the Compound I-14 (doses generated from the sodium salt of Compound I-14) in Milli-Q water at 1, 3, 10 and 30 mg/kg. A blood sample was collected from each animal through the catheter line at pre-dose and 2 hours post-dose for compound concentration quantification. Hemodynamic measures were recorded for ten hours post-dose. Fifty-four male rats were used for these studies and they were ordered to be received at a body weight range of 250-275 grams. They were single housed under controlled conditions of temperature (21±1° C.), relative humidity (36±1%) and placed in a 12-hr light-dark cycle (lights on at 6:00 AM and off at 6:00 PM) room at SmartLabs vivarium (21 Erie Street, Cambridge, MA) under protocol MIL-110. Animals were allowed ad libitum access to chow (LabDiet Prolab Isopro RMH 3000, St. Louis, MO) and water. Two sets of studies were carried out. For the first set of studies Compound I-14 was formulated at 0.3 and 1.0 mg/ml in Milli-Q water and frozen at −20° C. For the second set of studies, the sodium salt of Compound I-14 was weighed at Cyclerion Therapeutics and reconstituted at SmartLabs to provide 0.1, 0.3, 1.0 and 3.0 mg/ml solutions of Compound I-14 in Milli-Q water. Formulations prepared were thawed less than 4 hours before dosing and stored at room temperature or were made less than 2 hours before dosing and stored at room temperature.
Studies were conducted over 6 separate sessions. Animals were initially used within 3 days of receipt and if catheters remained patent, reused once after 6-7 days of washout. No animals were used more than twice.
This study utilized ADInstruments LabChart (v8) to collect hemodynamic data from conscious, freely moving rats tethered to a blood pressure transducer (Harvard Apparatus cat #APT300). Following an overnight acclimation to the tether and pressure transducer, animals were dosed following a 1-hr baseline recording period. Animals were administered a single oral (P.O.) dose of the sodium salt form of Compound I-14 or vehicle at a dose volume of 10 mL/kg. Data collection was continued for 10 hours post-dose.
ADInstruments LabChart (v8) was used to monitor and export hemodynamic data. Blood pressure and heart rate were continuously monitored, and data were collected at 1000 data points per second then averaged into 10-minute bins for analysis. Change from baseline MAP (ABMAP) and HR (ABHR) were calculated using the pre-dose baseline averaged over the 1-hr period prior to dosing using Microsoft Excel for Microsoft 365. This 10-minute bin dataset was used to determine peak ΔVMAP, time peak ΔVMAP, peak ΔVHR and time of peak ΔVHR. The dataset was further consolidated into 1-hr bins for the MAP and HR figures and the analysis of ΔBMAP, ΔBMAP, and ΔBHR. The definitions of these terms/abbreviations are summarized below:
Statistical analyses were performed in Graphpad Prism (v8). Significance, as compared to vehicle-treated rats, for ΔBMAP and ΔBHR data was determined by 2-way repeated measures ANOVA followed by a Dunnett's multiple comparisons test, if there was a missing data point, a mixed-effect analysis was utilized. Vehicle-adjusted MAP (ΔVMAP) was calculated by subtracting ΔBMAP of the vehicle group from the ΔBMAP of each dose group at each timepoint. Vehicle-adjusted HR (ΔVHR) was calculated in a similar manner to ΔVMAP.
Significance of AOC data were determined by one-way ANOVA followed by a Dunnett's multiple comparisons test as compared to vehicle. […]

`Cc1cc(F)c(Cc2nc(-c3ncc(F)c(O)n3)cn3ccnc23)cc1F` [Compound I-14, 5-fluoro-2-(8-(2,5-difluoro-4-methylbenzyl)imidazo[1,2-a]pyrazin-6-yl)pyrimidin-4-ol] was tested. Which “Peak ΔVMAP (mm Hg)” value (1 mg/kg single oral dose) did it give?
Its value is −6.2 mm Hg.

And the “Peak ΔVMAP (mm Hg)” value (3 mg/kg single oral dose)?
Its value is −10.1 mm Hg.

What about the “Peak ΔVMAP (mm Hg)” value (10 mg/kg single oral dose) of the same compound?
The value was −22.3 mm Hg.

What about the “Peak ΔVMAP (mm Hg)” value (30 mg/kg single oral dose) of the same compound?
The value was −24.4 mm Hg.

What about the “no effect dose on ΔBMAP” value (single oral dose, main effect analysis, simple effects analysis and AOC) of the same compound?
The value was 1 mg/kg.

And the “Time at Peak” value (1 mg/kg single oral dose)?
Its value is 90 min.

And the “Time at Peak” value (3 mg/kg single oral dose)?
The value was 70 min.

What about the “Time at Peak” value (10 mg/kg single oral dose) of the same compound?
Its value is 30 min.

And the “Time at Peak” value (30 mg/kg single oral dose)?
The value was 30 min.
